Experimental findings from patent US10995068B2, “Synthetic sphingolipid-like molecules, drugs, methods of their synthesis and methods of treatment” (The Regents of the University of California, priority 2015, dated 2021) are described below.

The test system of experiment [1] is mouse prostate cancer epithelial cells (mPCE). As to the kind of experiment: LDL receptor, LDL uptake and lipid droplets in mPCE cells. Format: cell-based. On the procedure: To determine the sensitivity, SH-BC-893 was evaluated in a validated genetically-engineered mouse model for invasive castration-resistant prostate cancer that lacks p53 and PTEN expression exclusively in the prostate (pDKO) (Wu X, et al. Am J Clin Exp Urol. 2014; 2(2):111-20; Schwarzenböck S, et al. Theranostics. 2012; 2(3):318-330; Chen Z, et al. Nature. 2005; 436(7051):725-730; the disclosures of which are herein incorporated by reference). […] SH-BC-893, however, still produced a phenotype consistent with starvation as the bound NADH fraction increased and cell permeant nutrients protected mPCE cells from death (FIGS. 65A and 65C). Prostate cancer cells depend on exogenous LDL for growth and survival. […]
Light Microscopy: Brightfield and epifluorescence microscopy were conducted using a Nikon TE2000-S fluorescence microscope; confocal microscopy was performed on a Zeiss LSM780 confocal microscope or Nikon Eclipse Ti spinning disk confocal microscope. […] Co-localization was determined using JACoP plugin in ImageJ software. Macropinocytosis was measured after 16 h incubation in serum-free DMEM. p53−/−; LSL-K-RasG12D MEFs before (LSL) or after (KRasG12D) introduction of Cre were serum starved for 16 h and then treated with macropinocytosis inhibitor 5-(N-ethyl-N-isopropyl) amiloride (EIPA, 75 μM) for 1 h or SH-BC-893 for 6 h. […]

The subject of experiment [2] is PI(3,5)P2 levels in HeLa cells. As to the kind of experiment: Measurement of PI(3,5)P2 by HPLC. It counts as cell-based. On the procedure:
In certain embodiments of the invention, sphingolipid-like molecules mis-localize PIKfyve preventing its association with TRMPL1 and inducing vacuolation, instead of inhibiting PIKfyve kinase activity. While PIKfyve localized to the limiting membrane of YM201636-induced vacuoles as expected, PIKfyve was present in clumps between vacuoles in FTY720-treated cells (FIGS. 57C and 56F).
Measurement of PI(3,5)P2 by HPLC. HeLa cells were rinsed twice with PBS and incubated in for 48 h in inositol labeling medium (inositol-free DMEM containing 5 μg/ml transferrin, 5 μg/ml insulin, 10% dialyzed FCS, 20 mM HEPES, 2 mM L-glutamine), and 10 μCi/ml myo-[2-^3H]inositol. Cells were lysed with 4.5% perchloric acid, scraped, and centrifuged at 14,000×g for 10 min at 4° C. Cell pellets were rinsed with 100 mM EDTA, centrifuged again, and re-suspended in 50 μl of water. To deacylate lipids, 1 ml methanol/40% methylamine/butanol (45.7% methanol, 10.7% methylamine, 11.4% butanol) were added and then the mixture was transferred to a glass vial and incubated at 55° C. for 1 h. After cooling to room temperature, samples were vacuum dried and re-suspended in 0.5 ml water. […] The aqueous phase was vacuum dried and re-suspended in 75 μl water and 50 μl of each sample was analyzed by HPLC. PI(3,5)P2 levels were expressed as a percentage of total phosphatidylinositol.

For `CCCCCCCCc1ccc([C@H]2CCN[C@@H]2CO)cc1.Cl` [Compound 5, (2S,3R)-2-(hydroxymethyl)-3-(4-octylphenyl)Pyrrolidinium chloride], the “surface levels of the LDL receptor (LDLr), LDL uptake, and lipid droplet accumulation” value in experiment [1] is listed as “dramatically decreased”.

For the compound `CCCCCCCCc1ccc(CCC(N)(CO)CO)cc1.Cl` [FTY720, 2-Amino-2-[2-(4-octylphenyl)ethyl]propane 1,3-diol hydrochloride, reference compound], in experiment [2], the “PI(3,5)P2 levels” value is listed as “did not inhibit PIKfyve kinase activity or reduce PI(3,5)P2 levels”.
